Results published in patent US20040024024A1, “Aromatic sulfone hydroxamates and their use as protease inhibitors” (priority 2001, published 2004).

Assays:
Assay in all cases: In vitro MMP inhibition, Ki determination (fluorogenic substrate II)
Assay type in all cases: biochemical
Conditions in all cases: value in parentheses
Human recombinant MMP-13 = target: T1, Human recombinant MMP-13 (Homo sapiens, UniProt P45452)
T1 construct: made in house; host or cells: baculovirus / insect cells
How it was run: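 Baculovirus-expressed proenzyme, APMA-activated; 4 μM fluorogenic MCA/Dpa peptide substrate (II), at or below Km, in Tris buffer pH 7.5 with CaCl2, 1 hr at room temperature. Fluorescence at 330/420 nm; Ki from non-linear regression with Morrison's equation, not corrected for substrate.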

Human recombinant MMP-1 = target: T2, Human recombinant MMP-1 (Homo sapiens, UniProt P03956)
T2 construct: made in house; host or cells: MMP-1-transfected HT-1080 cells (spent media)
T2 sequence (P03956 100-469): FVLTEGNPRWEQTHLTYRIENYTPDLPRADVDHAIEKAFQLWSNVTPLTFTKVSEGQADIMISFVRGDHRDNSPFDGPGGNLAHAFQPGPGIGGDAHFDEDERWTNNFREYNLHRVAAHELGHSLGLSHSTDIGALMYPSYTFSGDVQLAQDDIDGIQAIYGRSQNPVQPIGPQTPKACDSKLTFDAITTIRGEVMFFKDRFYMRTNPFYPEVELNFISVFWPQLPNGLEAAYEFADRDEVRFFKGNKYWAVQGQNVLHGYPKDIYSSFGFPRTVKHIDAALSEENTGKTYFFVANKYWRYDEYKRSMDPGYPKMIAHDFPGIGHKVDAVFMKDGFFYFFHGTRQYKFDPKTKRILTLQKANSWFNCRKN
How it was run: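 Activated human recombinant MMP-1 (APMA- or trypsin-activated; proenzyme from transfected HT-1080 cells) incubated 1 hr at room temperature with 4 μM MCA/Dpa fluorogenic substrate II at or below Km in Tris buffer pH 7.5 with CaCl2. Fluorescence ex 330/em 420 nm; Ki from Morrison-equation non-linear regression, uncorrected for substrate.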

Human recombinant MMP-9 = target: T3, Human recombinant MMP-9 (Homo sapiens, UniProt P14780)
T3 construct: made in house; host or cells: MMP-9-transfected HT1080 cells (spent media)
How it was run: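 MMP-9 proenzyme purified from transfected HT1080 cell media, activated with APMA, trypsin or recombinant MMP-3; hydroxamates diluted in pH 7.5 Tris/NaCl/CaCl2 buffer. Cleavage of 4 μM MCA/Dpa substrate II followed by fluorescence (ex 330/em 420 nm), 1 h at room temperature. Ki from Morrison-equation fit, substrate at/below Km, uncorrected.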

T3 sequence (P14780 107-707 limits assumed): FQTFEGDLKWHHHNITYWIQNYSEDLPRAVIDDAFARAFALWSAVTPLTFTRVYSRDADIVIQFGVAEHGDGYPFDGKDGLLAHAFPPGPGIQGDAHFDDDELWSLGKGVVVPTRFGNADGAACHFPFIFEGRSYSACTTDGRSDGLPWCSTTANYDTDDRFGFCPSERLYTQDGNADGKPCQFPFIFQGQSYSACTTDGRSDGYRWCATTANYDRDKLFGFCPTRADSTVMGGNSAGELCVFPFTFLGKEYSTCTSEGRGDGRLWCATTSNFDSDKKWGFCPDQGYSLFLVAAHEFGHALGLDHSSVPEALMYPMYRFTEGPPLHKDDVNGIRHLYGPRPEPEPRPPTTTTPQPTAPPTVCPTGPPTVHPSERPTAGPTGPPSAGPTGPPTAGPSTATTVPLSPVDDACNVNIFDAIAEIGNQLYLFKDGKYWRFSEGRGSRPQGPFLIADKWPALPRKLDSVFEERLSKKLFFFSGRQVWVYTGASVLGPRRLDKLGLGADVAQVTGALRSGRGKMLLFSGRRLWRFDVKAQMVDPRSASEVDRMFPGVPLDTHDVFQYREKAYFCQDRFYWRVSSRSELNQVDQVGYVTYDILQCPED

Ki (Human recombinant MMP-13) [µM]	Ki (Human recombinant MMP-1) [µM]	Ki (Human recombinant MMP-9) [µM]	SMILES
0.00102	> 10	1.32	O=C(NO)C1(S(=O)(=O)c2ccc(OCCc3ccc(-c4cccc(O)c4)cc3)cc2)CCOCC1 [Example 532]
0.000184	> 10	0.117	COCCN1CCC(C(=O)NO)(S(=O)(=O)c2ccc(OCCc3cccc(-c4ccncc4)c3)cc2)CC1 [Example 538]
0.00021	9.13	0.0855	COCCN1CCC(C(=O)NO)(S(=O)(=O)c2ccc(OCCc3cccc(-c4cccnc4)c3)cc2)CC1 [Example 539]
0.00058	> 10	0.689	COCCN1CCC(C(=O)NO)(S(=O)(=O)c2ccc(OCCc3cccc(-c4ccccc4F)c3)cc2)CC1 [Example 540]
0.00023	> 10	0.207	COCCN1CCC(C(=O)NO)(S(=O)(=O)c2ccc(OCCc3ccc(-c4ccc(C#N)cc4)cc3)cc2)CC1 [Example 543]
0.000898	> 10	0.787	COCCN1CCC(C(=O)NO)(S(=O)(=O)c2ccc(OCCc3cccc(-c4ccc(F)cc4)c3)cc2)CC1 [Example 544]
0.00111	> 10	0.923	COCCN1CCC(C(=O)NO)(S(=O)(=O)c2ccc(OCCc3cccc(-c4cccc(F)c4)c3)cc2)CC1 [Example 545]
0.00106	> 10	1.27	COCCN1CCC(C(=O)NO)(S(=O)(=O)c2ccc(OCCc3cccc(-c4ccc(F)cc4F)c3)cc2)CC1 [Example 546]
0.00228	> 10	1.86	COCCN1CCC(C(=O)NO)(S(=O)(=O)c2ccc(OCCc3cccc(-c4ccc(Cl)cc4)c3)cc2)CC1 [Example 547]
0.00038	> 10	0.279	COCCN1CCC(C(=O)NO)(S(=O)(=O)c2ccc(OCCc3cccc(-c4ccccn4)c3)cc2)CC1 [Example 548]
0.00187	> 10	1.77	COCCN1CCC(C(=O)NO)(S(=O)(=O)c2ccc(OCCc3cccc(-c4ccc(F)c(F)c4)c3)cc2)CC1 [Example 549]
0.000259	> 10	0.0712	COCCN1CCC(C(=O)NO)(S(=O)(=O)c2ccc(OCCNC(=O)c3cc4ccccc4o3)cc2)CC1 [Example 553]

Second part, the compound before the results:

SMILES	Ki (Human recombinant MMP-13) [µM]	Ki (Human recombinant MMP-1) [µM]	Ki (Human recombinant MMP-9) [µM]
O=C(NO)C1(S(=O)(=O)c2ccc(OCCc3ccc(-c4ccc(O)cc4)cc3)cc2)CCOCC1 [Example 531]	0.00272	> 10	0.774
CCCCc1ccc(CCCOc2ccc(S(=O)(=O)C3(C(=O)NO)CCOCC3)cc2)cn1 [Example 533]	0.000226	> 10	0.141
CCCc1ccc(CCCOc2ccc(S(=O)(=O)C3(C(=O)NO)CCOCC3)cc2)cn1 [Example 534]	0.000493	> 10	0.324
CCc1ccc(CCCOc2ccc(S(=O)(=O)C3(C(=O)NO)CCOCC3)cc2)cn1 [Example 535]	0.000261	> 10	0.128
CN1CCC(C(=O)NO)(S(=O)(=O)c2ccc(SCCNC(=O)c3cc4ccccc4o3)cc2)CC1 [Example 536]	0.0034	> 10	3.4
O=C(NCCSc1ccc(S(=O)(=O)C2(C(=O)NO)CCN(C3CC3)CC2)cc1)c1nc2ccccc2s1 [Example 541]	0.00024	> 10	0.269
O=C(NCCSc1ccc(S(=O)(=O)C2(C(=O)NO)CCN(C3CC3)CC2)cc1)c1cc2ccccc2o1 [Example 542]	0.00086	> 10	0.922
CCCc1ccc(COc2ccc(S(=O)(=O)C3(C(=O)NO)CCOCC3)cc2)cn1 [Example 550]	0.00052	> 10	0.00751
CCCCc1ccc(COc2ccc(S(=O)(=O)C3(C(=O)NO)CCOCC3)cc2)cn1 [Example 551]	0.00062	> 10	0.0482
CCc1ccc(COc2ccc(S(=O)(=O)C3(C(=O)NO)CCOCC3)cc2)cn1 [Example 552]	0.00178	> 10	0.00222
